Test results reported in patent US10441662B2, “Polymer, method for producing polymer, and drug conjugate” (Kawasaki Institute of Industrial Promotion, priority 2016, dated 2019).
Where a name gives a salt, the structure may show the parent alone. Read-outs that look alike come from different tables or passages of the source.

Key:
PC14 strain = assay: Cytotoxicity test against lung cancer cells, PC14
Description: (§1) The cytotoxicity test was performed on the K252a-H bonded aromatic polymer micelle and the K252a-H bonded aliphatic polymer micelle using the lung cancer cell strains listed in Table 4.
(§2) 2000 cells/50 μL of a cell solution was adjusted to have an appropriate amount, and 50 μL of the solution was each seeded to the […] of a 96-well plate. Only a culture medium (DMEM culture medium containing 10% FBS) was added to the raw 1. After the seeding, the 96-well plate was incubated for 24 hours.
(§3) 300 μL of a culture medium was added to each of 10 wells of the 24-well plate. 100 μL of the micelle solution was added to the well 1A of the 24-well plate and stirred by pipetting (approximately 10 times), and 100 μL of the micelle solution was transferred to the well 2B and stirred in the same manner as described above. The same operation was repeated 10 times, and micelle solutions having ten different concentrations were prepared.
(§4) 50 μL of each micelle solution adjusted in the above-described manner was added to the row 3 to the row 12 of a 96-well plate seeded with cancer cells in descending order of micelle concentrations of the solutions. Only 50 μL of a culture medium was added to the rows 1 and 2. Thereafter, the 96-well plate was incubated. After the incubation, the cells remained, the solutions in the wells were removed, and the cells in each well were washed with 200 μL of the culture medium. Finally, 100 μL of the culture medium was added to each well and the 96-well plate was incubated for 48 hours.
(§5) After 48 hours, 10 μL of a cell counting kit-8 solution (DOJINDO) was added to each well. The 96-well plate was incubated again, and the absorbance at a wavelength of 450 nm was measured after 30 minutes, 1 hour, and 2 hours.
The PC14.PE6 strain is a cancer cell strain (Yano et al., Oncology Research 9:573 to 579 (1997)) obtained by performing an operation of administering the PC14 strain to the tail vein of a mouse and establishing the cancer cells metastasized to the thoracic cavity six times. […]

PC14.PE6 strain = assay: Cytotoxicity test against lung cancer cells, PC14.PE6
Description: as §1, §2, §3, §4, §5
The PC14.PE6 strain is a cancer cell strain (Yano et al., Oncology Research 9:573 to 579 (1997)) obtained by performing an operation of administering the PC14 strain to the tail vein of a mouse and establishing the cancer cells metastasized to the thoracic cavity six times. Therefore, the PC14.PE6 strain is a cancer cell strain which is extremely metastatic and malignant.

[1] = Evaluation of maximum tolerated dose (MTD) of DAVBNH; format: in vivo, mouse
Description: DAVBNH was administered to mice (BALB/c Nude, female, 6 weeks old) four times (0 day, 3rd day, 6th day, 9th day) […], and the maximum tolerated dose (MTD) was evaluated. The administration groups were prepared as follows, and the number of mice in each group was set to 3.
Administration group 1: 3 mg/kg of DAVBNH
Administration group 2: 4 mg/kg of DAVBNH
Administration group 3: 6 mg/kg of DAVBNH

[2] = Evaluation of maximum tolerated dose (MTD) of drug conjugate; format: in vivo, mouse
Description: The drug was administered to mice (BALB/c Nude, female, 6 weeks old) four times (0 day, 3rd day, 6th day, 9th day) […], and the maximum tolerated dose (MTD) was evaluated. The administration groups were prepared as follows, and the number of mice in each group was set to 5.
Administration group 1: PBS (control)
Administration group 2: 2 mg/kg of DAVBNH (VinHyd)
Administration group 3: 2 mg/kg of DAVBNH bonded polymer micelle (Example 1)
Administration group 4: 4 mg/kg of DAVBNH bonded polymer micelle (Example 1)
Administration group 5: 16 mg/kg of DAVBNH bonded polymer micelle (Example 1)

[3] = test system: pancreatic cancer cell strains; assay: Cytotoxicity test against pancreatic cancer cells; format: cell-based; details: FIG. 31
Description: The cytotoxicity test was performed on the K252a-H bonded aromatic polymer micelle and the K252a-H bonded aliphatic polymer micelle using various pancreatic cancer cell strains in the same manner as described above. The BXPC3-F3 strain is a metastatic strain which became malignant by performing an operation of establishing a cancer cell strain metastasized to the liver after orthotopic transplant into a mouse, three times. Further, KP-3L is a metastatic strain (available from the cell bank of National Institutes of Biomedical Innovation, Health and Nutrition JCRB) obtained by establishing a cancer cell strain metastasized to the liver after human liver metastatic pancreatic cancer was transplanted to the spleen of a nude mouse.

[4] = Solubilization test in water; format: physicochemical; details: distilled water, UV absorption spectrum of filtrate
Description: K252a-H powder was dissolved in distilled water or methanol at a ratio of 1 mg/mL and the solution was sufficiently mixed. Thereafter, the solution was filtered using a filter having a pore diameter of […]. The ultraviolet absorption spectrum of the filtrate prepared as described above was measured using a spectrophotometer (Jasco V670). Based on the results of FIG. 27, it was confirmed that K252a-H was only dissolved in water at a ratio of 1 μg/mL or less.
Meanwhile, the K252a-H bonded aromatic polymer micelle and the K252a-H bonded aliphatic polymer micelle were dissolved in water, and the concentration of K252a-H was measured using HPLC.

[5] = test system: lung cancer cell strains listed in Table 4; assay: Cytotoxicity test against lung cancer cells; format: cell-based; details: FIG. 29
From the text: Further, in the following example, the used cell strains were purchased from the cell bank of American Type Culture. Collection, ATCC or National Institutes of Biomedical Innovation, Health and Nutrition (JCRB). PC14 PE6 was distributed from Profession Hosho (Tottori University). As the culture medium, DMEM, RPMI, or E-MEM was used unless otherwise specified. Gefitinib, Afatinib, Erlotinib, Cisplatin, Pemetrexed, and Gemicitabine were purchased from Funakoshi Co., Ltd. Osimertinib was purchased from Sellek Chemicals LLC.
Thereafter, the 96-well plate was incubated.

[6] = test system: head and neck cancer cell strains; assay: Cytotoxicity test against head and neck cancer cells; format: cell-based; details: all head and neck cancer cell strains, FIG. 32
Description: The cytotoxicity test was performed on the K252a-H bonded aromatic polymer micelle and the K252a-H bonded aliphatic polymer micelle using various head and neck cancer cell strains in the same manner as described above. Further, CDDP indicates Cisplatin serving as a target treatment drug for head and neck cancer.

[7] = test system: mesothelioma cell strain MSTO-211H; assay: Cytotoxicity test against mesothelioma cells; format: cell-based; details: FIG. 33
From the text: Further, CDDP indicates Cisplatin serving as a target treatment drug for mesothelioma. Pemetrexed is also a target treatment drug for mesothelioma.

EGFR L858R = molecular target: T1, EGFR L858R (Homo sapiens, UniProt P00533, L858R); assay: Hot spot kinase profiling, EGFR mutation; format: biochemical; details: 100 nM, ATP 10 μM, FIG. 40
T1 construct: purchased Reaction Biology Corporation
Description: (§6) The kinase profiling of K252a-H was performed using Monthly 202 mutant kinase panel by entrustment with Reaction Biology Corporation. The conditions for the kinase assay are as follows. KK252a was dissolved in DMSO and the assay was performed at 100 nM.
(§7) Buffer condition: 20 mM HEPES, pH of 7.5, 10 mM MgCl2, 1 mM EGTA, (in a case of being applicable, 2 mM MnCl2)

EGFR T790M = molecular target: T2, EGFR T790M (Homo sapiens, UniProt P00533, T790M); assay: Hot spot kinase profiling, EGFR mutation; format: biochemical; details: 100 nM, ATP 10 μM, FIG. 40
T2 construct: purchased Reaction Biology Corporation
Description: as §6, §7

EGFR d746-750/T790M = molecular target: T3, EGFR d746-750/T790M (Homo sapiens, UniProt P00533, DEL746-750/T790M); assay: Hot spot kinase profiling, EGFR mutation; format: biochemical; details: 100 nM, ATP 10 μM, FIG. 40
T3 construct: purchased Reaction Biology Corporation
Description: as §6, §7

[8] = molecular target: T4, EGFR d746-750/T790M/C797S (Homo sapiens, UniProt P00533, C797S/DEL746-750/T790M); assay: Hot spot kinase profiling, EGFR mutation; format: biochemical; details: 100 nM, ATP 10 μM, FIG. 40
T4 construct: purchased Reaction Biology Corporation
Description: as §6, §7

Flt3 = assay: Hot spot kinase profiling; format: biochemical; details: 100 nM, ATP 10 μM
Description: as §6, §7

RET = assay: Hot spot kinase profiling; format: biochemical; details: 100 nM, ATP 10 μM
Description: as §6, §7

c-kit = assay: Hot spot kinase profiling; format: biochemical; details: 100 nM, ATP 10 μM
Description: as §6, §7

[9] = molecular target: mutant kinases (list of FIG. 42); assay: Hot spot kinase profiling, Monthly 202 mutant kinase panel; format: biochemical; details: 100 nM, ATP 10 μM, mutant kinases listed in FIG. 42
Description: as §6, §7

[10] = test system: U87MG serving as a glioma cell strain; assay: Cytotoxicity test against brain tumor cells (cell-counting kit-8); format: cell-based; details: Homo sapiens, U-87 MG
Description: The in vitro cytotoxicity of the vinblastine sulfate and the drug conjugate (DAVBNH bonded polymer micelle of Example 1) was evaluated using cell-counting kit-8 with respect to U87MG serving as a glioma cell strain. The U87MG cells (3000 cells/well) were cultured in a DMEM medium containing 10% FBS using a 96-well plate. Thereafter, the U87MG cells were exposed to the vinblastine sulfate or the drug conjugate whose dose was different from that of the vinblastine sulfate. The cell survival rates after 48 hours and 72 hours from the exposure were acquired by measuring the formazan absorbance […] 450 nm.

[11] = mouse; cited from earlier work
[12] = malignant metastatic strain, compared with PC14

CN(C)C/C=C/C(=O)Nc1cc2c(Nc3ccc(F)c(Cl)c3)ncnc2cc1O[C@H]1CCOC1 [Afatinib]
cytotoxic activity against the PC14 strain (PC14 strain; FIGS. 29 and 30): excellent cytotoxic activity | cytotoxic activity against the PC14.PE6 strain (PC14.PE6 strain; [12]): significantly decreased

CC[C@]1(O)C[C@@H]2CN(CCc3c([nH]c4ccccc34)[C@@](C(=O)OC)(c3cc4c(cc3OC)N(C)[C@H]3[C@@](O)(C(=O)NN)[C@H](O)[C@]5(CC)C=CCN6CC[C@]43[C@@H]65)C2)C1 [DAVBNH, desacetyl vinblastine hydrazide]
weight loss ([1]; dose of 3 mg/kg, after only 25% of the treatment schedule): significant weight loss was observed | lethal dose ([1]; mice, four administrations): 6 mg/kg | weight loss ([2]; dose 2 mg/kg): a weight loss occurs | MTD ([2]; female, BALB/c Nude, mouse, in vivo, 2 mg/kg, mice, as used in Example 8): 2 mg/kg

C#Cc1cccc(Nc2ncnc3cc(OCCOC)c(OCCOC)cc23)c1 [Erlotinib]
effect on K-ras mutant strains and malignant metastatic strains [3]: not largely affected

CC12OC(CC1(O)C(=O)NN)n1c3ccccc3c3c4c(c5c6ccccc6n2c5c31)CNC4=O (centres unmarked) [Example K252a-H, K252a hydrazide]
dissolved in water [4]: ≤ 1 µg/mL | cytotoxic activity against lung cancer having resistance to lung cancer treatment drugs of the related art [5]: excellent cytotoxic activity | cytotoxic activity against the PC14.PE6 strain (PC14.PE6 strain; [12]): increased | effect on K-ras mutant strains and malignant metastatic strains [3]: effective for K-ras mutant strains and malignant metastatic strains | cytotoxic activity compared with Cisplatin [6]: higher cytotoxic activity against all head and neck cancer cell strains than that of Cisplatin | cytotoxic activity compared with Cisplatin and Pemetrexed [7]: higher cytotoxic activity than that of Cisplatin and Pemetrexed | activity against EGFR gatekeeper mutation L858R (EGFR L858R): specifically high activity | activity against EGFR gatekeeper mutation T790M (EGFR T790M): specifically high activity | activity against EGFR gatekeeper mutation d746-750/T790M (EGFR d746-750/T790M): specifically high activity | activity against EGFR gatekeeper mutation d746-750/T790M/C797S [8]: specifically high activity | inhibition of oncogene Flt3 (Flt3): strong inhibitor | inhibition of oncogene RET (RET): strong inhibitor | inhibition of oncogene c-kit (c-kit): strong inhibitor | kinase activity suppressed to [9]: ≤ 30%

COc1cc2ncnc(Nc3ccc(F)c(Cl)c3)c2cc1OCCCN1CCOCC1 [Gefitinib]
cytotoxic activity against the PC14 strain (PC14 strain): excellent cytotoxic activity | cytotoxic activity against the PC14.PE6 strain (PC14.PE6 strain): significantly decreased

Nc1ccn([C@@H]2O[C@H](CO)[C@@H](O)C2(F)F)c(=O)n1 [Gemcitabine]
effect on K-ras mutant strains and malignant metastatic strains [3]: not largely affected

C=CC(=O)Nc1cc(Nc2nccc(-c3cn(C)c4ccccc34)n2)c(OC)cc1N(C)CCN(C)C [Osimertinib]
cytotoxic activity against the PC14 strain (PC14 strain): excellent cytotoxic activity | cytotoxic activity against the PC14.PE6 strain (PC14.PE6 strain): significantly decreased

CC[C@]1(O)C[C@@H]2CN(CCc3c([nH]c4ccccc34)[C@@](C(=O)OC)(c3cc4c(cc3OC)N(C)[C@H]3[C@@](O)(C(=O)OC)[C@H](OC(C)=O)[C@]5(CC)C=CCN6CC[C@]43[C@@H]65)C2)C1 [Vinblastine sulfate, vinblastine sulfate]
IC50 ([10]; 48 hours from the exposure, read-out: IC50 48 hours): 1.4 nM | IC50 ([10]; 72 hours from the exposure, read-out: IC50 72 hours): 1.7 nM

CC[C@]1(O)C[C@@H]2CN(CCc3c([nH]c4ccccc34)[C@@](C(=O)OC)(c3cc4c(cc3OC)N(C)[C@H]3[C@@](O)(C(=O)OC)[C@H](OC(C)=O)[C@]5(CC)C=CCN6CC[C@]43[C@@H]65)C2)C1 [Vinblastine, vinblastine]
maximum tolerated dose [11]: 2 mg/kg
